{
  "source": "ChEMBL document CHEMBL4665770",
  "about": "“Design and Discovery of Natural Cyclopeptide Skeleton Based Programmed Death Ligand 1 Inhibitor as Immune Modulator for Cancer Therapy” (J Med Chem, 2020)",
  "key": {"MC-38 [1]": {"system": "MC-38", "assay": "Induction of immune response mediated antitumor activity in mouse MC38 cells xenografted in C57/BL mouse assessed as tumor growth inhibition at 40 mg/kg, ip administered every other day from day 6 post implantation measured every 2 days", "assay_type": "functional, organism-based"}, "[2]": {"assay": "Toxicity in mouse MC38 cells xenografted C57/BL mouse assessed as change in body weight at 40 mg/kg, ip administered every other day from day 6 post implantation measured every 2 days", "assay_type": "organism-based", "details": "in vivo, 48 h"}, "MC-38 [3]": {"system": "MC-38", "assay": "Immunomodulatory activity in mouse MC38 cells xenografted in C57/BL mouse assessed as increase in infiltration of CD3-positive T cells at 40 mg/kg, ip administered every other day from day 6 post implantation by DAPI staining based immunofluorescence microscopy", "assay_type": "functional, organism-based"}, "MC-38 [4]": {"system": "MC-38", "assay": "Immunomodulatory activity in mouse MC38 cells xenografted in C57/BL mouse assessed as increase in perforin at 40 mg/kg, ip administered every other day from day 6 post implantation by hematoxylin staining based immunohistochemical analysis", "assay_type": "functional, organism-based"}, "MC-38 [5]": {"system": "MC-38", "assay": "Immunomodulatory activity in mouse MC38 cells xenografted in C57/BL mouse assessed as increase in granzyme B at 40 mg/kg, ip administered every other day from day 6 post implantation by hematoxylin staining based immunohistochemical analysis", "assay_type": "functional, organism-based"}, "MC-38 [6]": {"system": "MC-38", "assay": "Immunomodulatory activity in mouse MC38 cells xenografted in C57/BL mouse assessed as increase in infiltration of CD8-positive T cells at 40 mg/kg, ip administered every other day from day 6 post implantation by DAPI staining based immunofluorescence microscopy", "assay_type": "functional, organism-based"}, "MDA-MB-231 [7]": {"system": "MDA-MB-231", "assay": "Immunomodulatory activity in human MDA-MB-231 cells cocultured with human PBMC assessed as induction of PBMC recruitment to MDA-MB-231 cells by measuring increase in activated caspase-3 at 20 uM incubated for 24 hrs by GrennNuc caspase-3 substrate based assay", "assay_type": "functional, cell-based"}, "MDA-MB-231 [8]": {"system": "MDA-MB-231", "assay": "Immunomodulatory activity in human CFDA SE-labelled MDA-MB-231 cells cocultured with PMBC assessed as induction of PBMC recruitment to MDA-MB-231 cells by measuring early apoptotic cells at 20 uM incubated for 48 hrs by propidium iodide staining based flow cytometry analysis (reference value: 0 %)", "assay_type": "functional"}, "MDA-MB-231 [9]": {"system": "MDA-MB-231", "assay": "Immunomodulatory activity in human CFDA SE-labelled MDA-MB-231 cells cocultured with PMBC assessed as induction of PBMC recruitment to MDA-MB-231 cells by measuring viable cells at 20 uM incubated for 48 hrs by propidium iodide staining based flow cytometry analysis (reference value: 99.87 %)", "assay_type": "functional"}, "MDA-MB-231 [10]": {"system": "MDA-MB-231", "assay": "Immunomodulatory activity in human CFDA SE-labelled MDA-MB-231 cells cocultured with PMBC assessed as induction of PBMC recruitment to MDA-MB-231 cells by measuring late apoptotic cells at 20 uM incubated for 48 hrs by propidium iodide staining based flow cytometry analysis (reference value: 0 %)", "assay_type": "functional"}, "MDA-MB-231 [11]": {"system": "MDA-MB-231", "assay": "Immunomodulatory activity in human CFDA SE-labelled MDA-MB-231 cells cocultured with PMBC assessed as induction of PBMC recruitment to MDA-MB-231 cells by measuring necrotic cell at 20 uM incubated for 48 hrs by propidium iodide staining based flow cytometry analysis (reference value: 0.13 %)", "assay_type": "functional"}, "[12]": {"assay": "Toxicity in mouse MC38 cells xenografted C57/BL mouse assessed as death at 40 mg/kg, ip administered every other day from day 6 post implantation measured on day 14", "assay_type": "organism-based", "details": "in vivo, time 14 day, read-out: Activity"}},
  "note": "Activity calls are given as the source filed them. The rule behind the calls is not given here.",
  "data": [
    {"compound": "Cc1c(COc2ccc(CN3CCCCC3C(=O)O)cc2Br)cccc1-c1ccccc1", "note": "(configuration not stated)", "values": [
      {"measurement": "TGI", "setting": "MC-38 [1]", "result": "Active"},
      {"measurement": "Activity", "setting": "[2]", "result": "Toxic"},
      {"measurement": "Activity", "setting": "MC-38 [3]", "result": "Active"},
      {"measurement": "Activity", "setting": "MC-38 [4]", "result": "Active"},
      {"measurement": "Activity", "setting": "MC-38 [5]", "result": "Active"},
      {"measurement": "Activity", "setting": "MC-38 [6]", "result": "Active"},
      {"measurement": "Activity", "setting": "MDA-MB-231 [7]", "result": "Active"},
      {"measurement": "Activity", "setting": "MDA-MB-231 [8]", "result": 55, "unit": "%"},
      {"measurement": "Activity", "setting": "MDA-MB-231 [9]", "result": 0.31, "unit": "%"},
      {"measurement": "Activity", "setting": "MDA-MB-231 [10]", "result": 44.69, "unit": "%"},
      {"measurement": "Activity", "setting": "MDA-MB-231 [11]", "result": 0, "unit": "%"},
      {"measurement": "mortality at 336 h", "setting": "[12]", "result": 75, "unit": "%"}
    ]}
  ]
}
